{"source": "ChEMBL document CHEMBL4630909", "about": "(2021)", "key": {"[1]": {"target": "Prostaglandin G/H synthase 2 (Homo sapiens, UniProt P35354)", "sequence (P35354 whole entry)": "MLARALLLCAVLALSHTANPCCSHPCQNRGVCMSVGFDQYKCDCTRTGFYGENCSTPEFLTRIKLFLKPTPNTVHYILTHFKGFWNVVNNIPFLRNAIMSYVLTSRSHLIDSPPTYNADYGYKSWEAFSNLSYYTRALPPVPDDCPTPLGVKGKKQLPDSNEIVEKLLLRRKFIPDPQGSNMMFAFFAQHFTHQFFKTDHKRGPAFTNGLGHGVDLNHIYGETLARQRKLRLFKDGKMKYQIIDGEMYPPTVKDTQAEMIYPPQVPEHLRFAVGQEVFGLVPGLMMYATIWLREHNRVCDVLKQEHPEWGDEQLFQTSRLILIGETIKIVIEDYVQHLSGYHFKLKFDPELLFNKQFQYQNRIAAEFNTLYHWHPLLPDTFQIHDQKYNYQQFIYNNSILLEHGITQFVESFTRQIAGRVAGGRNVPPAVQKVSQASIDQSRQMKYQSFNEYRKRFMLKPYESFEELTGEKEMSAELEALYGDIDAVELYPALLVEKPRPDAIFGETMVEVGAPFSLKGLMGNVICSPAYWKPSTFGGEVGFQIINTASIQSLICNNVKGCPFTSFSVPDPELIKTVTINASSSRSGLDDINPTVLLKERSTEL", "test": "(§1) Cross screening panel"}, "Substance-P receptor": {"target": "Substance-P receptor (Homo sapiens, UniProt P25103)", "test": "as §1"}, "Aurora kinase B": {"target": "Aurora kinase B (Homo sapiens, UniProt Q96GD4)", "test": "as §1"}, "[2]": {"target": "Acetylcholine receptor subunit alpha (Homo sapiens, UniProt P02708)", "sequence (P02708 whole entry)": "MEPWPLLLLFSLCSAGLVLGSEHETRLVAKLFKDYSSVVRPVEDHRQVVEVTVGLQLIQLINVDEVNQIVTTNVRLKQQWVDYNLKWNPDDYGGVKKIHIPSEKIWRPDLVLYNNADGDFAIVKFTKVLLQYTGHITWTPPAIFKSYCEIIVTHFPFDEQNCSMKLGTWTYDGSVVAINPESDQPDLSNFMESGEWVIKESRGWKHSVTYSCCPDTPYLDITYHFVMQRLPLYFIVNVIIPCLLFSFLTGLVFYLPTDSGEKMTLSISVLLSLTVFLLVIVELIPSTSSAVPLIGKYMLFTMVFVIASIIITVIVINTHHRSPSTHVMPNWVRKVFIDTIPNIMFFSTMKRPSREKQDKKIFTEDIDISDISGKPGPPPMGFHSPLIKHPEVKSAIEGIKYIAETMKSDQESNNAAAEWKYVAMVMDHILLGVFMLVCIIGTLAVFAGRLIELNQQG", "test": "as §1"}, "[3]": {"target": "Kappa-type opioid receptor (Homo sapiens, UniProt P41145)", "test": "as §1"}, "Histamine H1 receptor": {"target": "Histamine H1 receptor (Homo sapiens, UniProt P35367)", "test": "as §1"}, "[4]": {"target": "Tyrosine-protein kinase Lck (Homo sapiens, UniProt P06239)", "test": "as §1"}, "[5]": {"target": "Sodium-dependent noradrenaline transporter (Homo sapiens, UniProt P23975)", "test": "as §1"}, "D(2) dopamine receptor [6]": {"target": "T1, D(2) dopamine receptor (Homo sapiens, UniProt P14416)", "T1 sequence (P14416 whole entry)": "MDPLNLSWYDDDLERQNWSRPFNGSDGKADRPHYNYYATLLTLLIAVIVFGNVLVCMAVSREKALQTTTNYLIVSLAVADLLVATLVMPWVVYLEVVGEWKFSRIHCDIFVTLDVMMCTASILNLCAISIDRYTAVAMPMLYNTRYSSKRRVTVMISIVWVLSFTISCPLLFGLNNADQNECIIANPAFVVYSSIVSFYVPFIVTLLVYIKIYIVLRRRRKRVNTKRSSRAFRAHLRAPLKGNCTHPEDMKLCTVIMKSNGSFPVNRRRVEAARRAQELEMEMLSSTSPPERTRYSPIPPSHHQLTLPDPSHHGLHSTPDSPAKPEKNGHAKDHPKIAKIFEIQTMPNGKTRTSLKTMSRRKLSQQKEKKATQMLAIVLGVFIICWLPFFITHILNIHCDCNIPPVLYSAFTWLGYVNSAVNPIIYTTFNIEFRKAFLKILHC", "test": "as §1"}, "Acetylcholinesterase": {"target": "Acetylcholinesterase (Homo sapiens, UniProt P22303)", "test": "as §1"}, "[7]": {"target": "cGMP-inhibited 3',5'-cyclic phosphodiesterase 3A (Homo sapiens, UniProt Q14432)", "test": "as §1"}, "[8]": {"target": "Sodium channel protein type 5 subunit alpha (Homo sapiens, UniProt Q14524)", "test": "as §1"}, "[9]": {"target": "Glutamate receptor ionotropic, NMDA 2B (Homo sapiens, UniProt Q13224)", "test": "as §1"}, "[10]": {"target": "T2, 5-hydroxytryptamine receptor 1B (Homo sapiens, UniProt P28222)", "T2 sequence (P28222 whole entry)": "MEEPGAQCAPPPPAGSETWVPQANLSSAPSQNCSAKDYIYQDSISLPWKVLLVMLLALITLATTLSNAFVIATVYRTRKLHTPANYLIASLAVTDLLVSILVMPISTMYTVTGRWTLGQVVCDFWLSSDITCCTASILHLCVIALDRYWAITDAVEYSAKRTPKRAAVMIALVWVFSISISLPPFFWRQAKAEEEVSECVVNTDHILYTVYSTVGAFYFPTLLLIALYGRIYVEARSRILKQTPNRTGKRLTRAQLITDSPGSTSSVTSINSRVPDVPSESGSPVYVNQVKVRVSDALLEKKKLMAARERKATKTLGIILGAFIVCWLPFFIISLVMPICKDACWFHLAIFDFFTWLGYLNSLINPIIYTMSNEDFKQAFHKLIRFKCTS", "test": "as §1"}, "[11]": {"target": "Alpha-1B adrenergic receptor (Homo sapiens, UniProt P35368)", "test": "as §1"}, "[12]": {"target": "Beta-2 adrenergic receptor (Homo sapiens, UniProt P07550)", "sequence (P07550 whole entry)": "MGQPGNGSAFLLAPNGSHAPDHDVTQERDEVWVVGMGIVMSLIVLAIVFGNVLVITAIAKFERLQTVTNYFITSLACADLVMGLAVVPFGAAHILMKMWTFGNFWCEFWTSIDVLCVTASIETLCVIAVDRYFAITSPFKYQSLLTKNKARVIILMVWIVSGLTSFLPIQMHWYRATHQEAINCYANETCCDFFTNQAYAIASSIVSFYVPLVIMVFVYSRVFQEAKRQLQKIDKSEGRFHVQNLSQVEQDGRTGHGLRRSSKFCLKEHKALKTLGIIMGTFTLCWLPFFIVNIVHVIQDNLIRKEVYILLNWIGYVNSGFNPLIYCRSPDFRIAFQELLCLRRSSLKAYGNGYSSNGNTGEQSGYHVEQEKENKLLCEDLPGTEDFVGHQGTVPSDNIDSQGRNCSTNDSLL", "test": "as §1"}, "[13]": {"target": "Muscarinic acetylcholine receptor M2 (Homo sapiens, UniProt P08172)", "sequence (P08172 whole entry)": "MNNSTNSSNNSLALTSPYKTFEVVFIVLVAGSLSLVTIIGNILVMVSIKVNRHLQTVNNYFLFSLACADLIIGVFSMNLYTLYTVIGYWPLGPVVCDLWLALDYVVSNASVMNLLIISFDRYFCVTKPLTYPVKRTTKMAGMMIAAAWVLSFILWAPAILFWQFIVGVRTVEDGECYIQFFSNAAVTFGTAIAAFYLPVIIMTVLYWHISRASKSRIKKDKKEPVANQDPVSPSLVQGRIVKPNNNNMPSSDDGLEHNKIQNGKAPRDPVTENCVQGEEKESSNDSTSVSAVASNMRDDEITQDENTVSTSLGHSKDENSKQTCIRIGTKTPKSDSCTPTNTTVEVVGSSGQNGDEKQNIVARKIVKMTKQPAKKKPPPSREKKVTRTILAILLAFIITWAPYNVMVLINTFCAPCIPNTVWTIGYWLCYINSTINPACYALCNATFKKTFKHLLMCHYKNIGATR", "test": "as §1"}, "[14]": {"target": "5-hydroxytryptamine receptor 2B (Homo sapiens) (UniProt P41595)", "settings": "Compound concentration 10.0 uM"}, "[15]": {"target": "D(3) dopamine receptor (Homo sapiens) (UniProt P35462)", "settings": "Compound concentration 10.0 uM"}, "[16]": {"target": "Histone acetyltransferase KAT2A (Homo sapiens, UniProt Q92830)", "test": "GCN5L2 DiscoverX BROMOscan"}, "C-C motif chemokine 2": {"target": "C-C motif chemokine 2 (Homo sapiens, UniProt P13500)", "test": "In vitro inhibition of MCP-1 in Lipopolysaccharide-stimulated human whole blood", "type": "tissue-based"}, "[17]": {"target": "SWI/SNF-related matrix-associated actin-dependent regulator of chromatin subfamily A member 2 (Homo sapiens, UniProt P51531)", "sequence (P51531 whole entry)": "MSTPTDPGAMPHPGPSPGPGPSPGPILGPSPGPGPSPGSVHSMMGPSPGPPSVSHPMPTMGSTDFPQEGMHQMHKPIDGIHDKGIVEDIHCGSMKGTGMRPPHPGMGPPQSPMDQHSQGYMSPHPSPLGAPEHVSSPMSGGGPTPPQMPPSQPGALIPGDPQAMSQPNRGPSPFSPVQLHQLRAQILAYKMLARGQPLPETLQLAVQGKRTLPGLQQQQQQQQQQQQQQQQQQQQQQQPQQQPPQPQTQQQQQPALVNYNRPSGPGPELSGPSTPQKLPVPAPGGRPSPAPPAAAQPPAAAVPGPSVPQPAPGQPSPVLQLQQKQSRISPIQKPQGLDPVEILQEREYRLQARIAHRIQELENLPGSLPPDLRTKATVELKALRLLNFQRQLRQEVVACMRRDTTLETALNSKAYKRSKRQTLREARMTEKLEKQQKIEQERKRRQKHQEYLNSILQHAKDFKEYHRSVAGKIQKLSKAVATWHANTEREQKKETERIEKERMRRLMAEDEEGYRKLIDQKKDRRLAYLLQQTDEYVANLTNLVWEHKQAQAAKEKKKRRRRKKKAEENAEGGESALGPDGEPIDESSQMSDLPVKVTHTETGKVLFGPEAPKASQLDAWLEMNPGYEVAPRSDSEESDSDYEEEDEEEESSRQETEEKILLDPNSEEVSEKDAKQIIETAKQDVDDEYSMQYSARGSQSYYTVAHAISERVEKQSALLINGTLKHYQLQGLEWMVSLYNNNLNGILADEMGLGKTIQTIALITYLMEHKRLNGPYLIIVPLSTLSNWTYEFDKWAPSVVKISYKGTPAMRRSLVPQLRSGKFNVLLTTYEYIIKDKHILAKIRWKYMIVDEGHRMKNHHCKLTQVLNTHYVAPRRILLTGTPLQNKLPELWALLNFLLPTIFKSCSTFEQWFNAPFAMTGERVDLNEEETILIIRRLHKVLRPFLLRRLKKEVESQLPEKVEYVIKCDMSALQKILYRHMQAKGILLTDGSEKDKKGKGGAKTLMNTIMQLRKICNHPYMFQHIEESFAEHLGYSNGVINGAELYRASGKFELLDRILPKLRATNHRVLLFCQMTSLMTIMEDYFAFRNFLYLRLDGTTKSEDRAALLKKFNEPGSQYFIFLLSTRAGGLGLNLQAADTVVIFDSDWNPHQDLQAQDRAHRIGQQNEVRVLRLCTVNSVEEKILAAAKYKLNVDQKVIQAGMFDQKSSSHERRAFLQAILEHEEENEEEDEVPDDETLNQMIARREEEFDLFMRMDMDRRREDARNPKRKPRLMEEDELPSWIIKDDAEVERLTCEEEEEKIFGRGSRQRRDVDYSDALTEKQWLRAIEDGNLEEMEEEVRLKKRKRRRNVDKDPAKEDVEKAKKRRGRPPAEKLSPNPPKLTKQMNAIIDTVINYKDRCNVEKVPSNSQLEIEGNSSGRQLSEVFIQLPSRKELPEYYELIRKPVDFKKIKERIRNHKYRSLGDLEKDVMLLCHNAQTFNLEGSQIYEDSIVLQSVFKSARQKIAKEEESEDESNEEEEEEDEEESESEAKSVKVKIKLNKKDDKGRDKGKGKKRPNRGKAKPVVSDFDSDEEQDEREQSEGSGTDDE", "test": "SMARCA2 DiscoverX BROMOscan"}, "[18]": {"target": "Histone acetyltransferase KAT2B (Homo sapiens, UniProt Q92831)", "test": "PCAF DiscoverX BROMOscan"}, "[19]": {"target": "Bromodomain adjacent to zinc finger domain protein 2B (Homo sapiens, UniProt Q9UIF8)", "test": "BAZ2B DiscoverX BROMOscan"}, "[20]": {"target": "5-hydroxytryptamine receptor 3A (Homo sapiens) (UniProt P46098)", "sequence (P46098 whole entry)": "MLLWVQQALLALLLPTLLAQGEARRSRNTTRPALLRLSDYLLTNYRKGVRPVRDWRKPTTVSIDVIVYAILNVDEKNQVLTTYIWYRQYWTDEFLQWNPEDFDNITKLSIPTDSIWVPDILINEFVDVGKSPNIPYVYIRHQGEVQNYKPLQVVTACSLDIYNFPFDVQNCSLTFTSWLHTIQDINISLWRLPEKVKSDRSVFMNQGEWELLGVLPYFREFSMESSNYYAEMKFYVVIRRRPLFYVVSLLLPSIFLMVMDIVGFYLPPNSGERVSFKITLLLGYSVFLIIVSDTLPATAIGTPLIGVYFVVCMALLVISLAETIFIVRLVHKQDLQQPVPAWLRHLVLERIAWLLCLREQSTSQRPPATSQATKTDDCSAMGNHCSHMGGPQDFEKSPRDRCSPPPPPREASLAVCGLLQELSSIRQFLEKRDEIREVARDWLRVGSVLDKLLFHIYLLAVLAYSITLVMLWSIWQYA", "settings": "Compound concentration 10.0 uM"}, "[21]": {"target": "Bromodomain-containing protein 8 (Homo sapiens, UniProt Q9H0E9)", "test": "BRD8(2) DiscoverX BROMOscan"}, "[22]": {"target": "Muscarinic acetylcholine receptor M3 (Homo sapiens) (UniProt P20309)", "settings": "Compound concentration 10.0 uM"}, "[23]": {"target": "Histamine H3 receptor (Homo sapiens) (UniProt Q9Y5N1)", "settings": "Compound concentration 10.0 uM"}, "[24]": {"target": "T2, 5-hydroxytryptamine receptor 1B", "settings": "Compound concentration 10.0 uM"}, "[25]": {"target": "Alpha-1B adrenergic receptor (Homo sapiens) (UniProt P35368)", "settings": "Compound concentration 10.0 uM"}, "CREB-binding protein": {"target": "CREB-binding protein (Homo sapiens, UniProt Q92793)", "test": "CREBBP DiscoverX BROMOscan"}, "[26]": {"target": "5-hydroxytryptamine receptor 7 (Homo sapiens) (UniProt P34969)", "settings": "Compound concentration 10.0 uM"}, "[27]": {"target": "Histamine H4 receptor (Homo sapiens) (UniProt Q9H3N8)", "settings": "Compound concentration 10.0 uM"}, "[28]": {"target": "SWI/SNF-related matrix-associated actin-dependent regulator of chromatin subfamily A member 4 (Homo sapiens, UniProt P51532)", "test": "SMARCA4 DiscoverX BROMOscan"}, "[29]": {"target": "5-hydroxytryptamine receptor 2A (Homo sapiens, UniProt P28223)", "settings": "Compound concentration 10.0 uM"}, "[30]": {"target": "Alpha-1D adrenergic receptor (Homo sapiens) (UniProt P25100)", "settings": "Compound concentration 10.0 uM"}, "[31]": {"target": "Muscarinic acetylcholine receptor M5 (Homo sapiens) (UniProt P08912)", "settings": "Compound concentration 10.0 uM"}, "[32]": {"target": "Alpha-2B adrenergic receptor (Homo sapiens) (UniProt P18089)", "settings": "Compound concentration 10.0 uM"}, "[33]": {"target": "Alpha-1A adrenergic receptor (Homo sapiens) (UniProt P35348)", "settings": "Compound concentration 10.0 uM"}, "[34]": {"target": "5-hydroxytryptamine receptor 1A (Homo sapiens) (UniProt P08908)", "settings": "Compound concentration 10.0 uM"}, "Mu-type opioid receptor": {"target": "Mu-type opioid receptor (Homo sapiens, UniProt P35372)", "settings": "Compound concentration 10.0 uM"}, "[35]": {"target": "Bromodomain-containing protein 1 (Homo sapiens, UniProt O95696)", "test": "BRD1 DiscoverX BROMOscan"}, "[36]": {"target": "Muscarinic acetylcholine receptor M4 (Homo sapiens) (UniProt P08173)", "settings": "Compound concentration 10.0 uM"}, "Protein polybromo-1": {"target": "Protein polybromo-1 (Homo sapiens, UniProt Q86U86)", "test": "PBRM1(5) DiscoverX BROMOscan"}, "[37]": {"target": "Transcription intermediary factor 1-alpha (Homo sapiens, UniProt O15164)", "test": "TRIM24(PHD,Bromo.) DiscoverX BROMOscan"}, "Rattus norvegicus": {"species_on_record": "Rattus norvegicus", "settings": "Compound concentration 10.0 uM"}, "[38]": {"target": "Muscarinic acetylcholine receptor M2 (Homo sapiens) (UniProt P08172)", "settings": "Compound concentration 10.0 uM"}, "[39]": {"target": "E3 ubiquitin-protein ligase TRIM33 (Homo sapiens, UniProt Q9UPN9)", "test": "TRIM33(PHD,Bromo.) DiscoverX BROMOscan"}, "[40]": {"target": "Sigma intracellular receptor 2 (Homo sapiens) (UniProt Q5BJF2)", "sequence (Q5BJF2 whole entry)": "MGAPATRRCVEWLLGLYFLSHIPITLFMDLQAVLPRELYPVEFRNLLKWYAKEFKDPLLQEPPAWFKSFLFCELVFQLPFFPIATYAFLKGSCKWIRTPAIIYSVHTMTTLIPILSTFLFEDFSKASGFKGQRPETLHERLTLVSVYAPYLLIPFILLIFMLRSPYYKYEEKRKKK", "settings": "Compound concentration 10.0 uM"}, "[41]": {"target": "Alpha-2A adrenergic receptor (Homo sapiens) (UniProt P08913)", "settings": "Compound concentration 10.0 uM"}, "D(2) dopamine receptor [42]": {"target": "T1, D(2) dopamine receptor", "settings": "Compound concentration 10.0 uM"}, "[43]": {"target": "Delta-type opioid receptor (Homo sapiens) (UniProt P41143)", "settings": "Compound concentration 10.0 uM"}}, "note": "Active and inactive are the calls of the source. The rule behind the calls is not given here."}
{"smiles": "CNC(=O)c1cc(C(=O)NC2CC2)cn(Cc2ccccc2)c1=O", "note": "[GSK620]", "values": [{"measurement": "IC50", "setting": "[1]", "value": "> 100", "unit": "µM"}, {"measurement": "IC50", "setting": "Substance-P receptor", "value": "> 25.1", "unit": "µM"}, {"measurement": "IC50", "setting": "Aurora kinase B", "value": "> 31.6", "unit": "µM"}, {"measurement": "EC50", "setting": "[2]", "value": "> 50.1", "unit": "µM"}, {"measurement": "IC50", "setting": "[2]", "value": "> 50.1", "unit": "µM"}, {"measurement": "EC50", "setting": "[3]", "value": "> 100", "unit": "µM"}, {"measurement": "IC50", "setting": "Histamine H1 receptor", "value": "> 25.1", "unit": "µM"}, {"measurement": "IC50", "setting": "[4]", "value": "> 31.6", "unit": "µM"}, {"measurement": "IC50", "setting": "[5]", "value": "> 100", "unit": "µM"}, {"measurement": "EC50", "setting": "D(2) dopamine receptor [6]", "value": "> 100", "unit": "µM"}, {"measurement": "IC50", "setting": "D(2) dopamine receptor [6]", "value": "> 100", "unit": "µM"}, {"measurement": "IC50", "setting": "Acetylcholinesterase", "value": "> 100", "unit": "µM"}, {"measurement": "IC50", "setting": "[7]", "value": "> 100", "unit": "µM"}, {"measurement": "IC50", "setting": "[8]", "value": "> 100", "unit": "µM"}, {"measurement": "IC50", "setting": "[9]", "value": "> 50.1", "unit": "µM"}, {"measurement": "EC50", "setting": "[10]", "value": "> 100", "unit": "µM"}, {"measurement": "IC50", "setting": "[10]", "value": "> 100", "unit": "µM"}, {"measurement": "IC50", "setting": "[11]", "value": "> 25.1", "unit": "µM"}, {"measurement": "EC50", "setting": "[12]", "value": "> 100", "unit": "µM"}, {"measurement": "IC50", "setting": "[12]", "value": "> 100", "unit": "µM"}, {"measurement": "EC50", "setting": "[13]", "value": "> 50.1", "unit": "µM"}, {"measurement": "IC50", "setting": "[13]", "value": "> 50.1", "unit": "µM"}, {"measurement": "inhibition", "setting": "[14]", "value": 16.5, "unit": "%"}, {"measurement": "inhibition", "setting": "[15]", "value": 1.54, "unit": "%"}, {"measurement": "Kd", "setting": "[16]", "value": 31.6, "unit": "µM"}, {"measurement": "IC50", "setting": "C-C motif chemokine 2", "value": "0.794 µM (active)"}, {"measurement": "Kd", "setting": "[17]", "value": 31.6, "unit": "µM"}, {"measurement": "Kd", "setting": "[18]", "value": 31.6, "unit": "µM"}, {"measurement": "Kd", "setting": "[19]", "value": 31.6, "unit": "µM"}, {"measurement": "inhibition", "setting": "[20]", "value": 14.3, "unit": "%"}, {"measurement": "Kd", "setting": "[21]", "value": 31.6, "unit": "µM"}, {"measurement": "inhibition", "setting": "[22]", "value": 21.4, "unit": "%"}, {"measurement": "inhibition", "setting": "[23]", "value": -8.16, "unit": "%"}, {"measurement": "inhibition", "setting": "[24]", "value": -3.67, "unit": "%"}, {"measurement": "inhibition", "setting": "[25]", "value": 7.27, "unit": "%"}, {"measurement": "Kd", "setting": "CREB-binding protein", "value": 10, "unit": "µM"}, {"measurement": "inhibition", "setting": "[26]", "value": 13.6, "unit": "%"}, {"measurement": "inhibition", "setting": "[27]", "value": 16.1, "unit": "%"}, {"measurement": "Kd", "setting": "[28]", "value": 31.6, "unit": "µM"}, {"measurement": "inhibition", "setting": "[29]", "value": -8.9, "unit": "%"}, {"measurement": "inhibition", "setting": "[30]", "value": 2.36, "unit": "%"}, {"measurement": "inhibition", "setting": "[31]", "value": -5.05, "unit": "%"}, {"measurement": "inhibition", "setting": "[32]", "value": 5.2, "unit": "%"}, {"measurement": "inhibition", "setting": "[33]", "value": -0.64, "unit": "%"}, {"measurement": "inhibition", "setting": "[34]", "value": 6.03, "unit": "%"}, {"measurement": "inhibition", "setting": "Mu-type opioid receptor", "value": 13.5, "unit": "%"}, {"measurement": "Kd", "setting": "[35]", "value": 25.1, "unit": "µM"}, {"measurement": "inhibition", "setting": "[36]", "value": 0.52, "unit": "%"}, {"measurement": "Kd", "setting": "Protein polybromo-1", "value": 31.6, "unit": "µM"}, {"measurement": "Kd", "setting": "[37]", "value": 31.6, "unit": "µM"}, {"measurement": "inhibition", "setting": "Rattus norvegicus", "value": 7.71, "unit": "%"}, {"measurement": "inhibition", "setting": "[38]", "value": 13.2, "unit": "%"}, {"measurement": "Kd", "setting": "[39]", "value": 31.6, "unit": "µM"}, {"measurement": "inhibition", "setting": "[40]", "value": 7.83, "unit": "%"}, {"measurement": "inhibition", "setting": "[41]", "value": -4.53, "unit": "%"}, {"measurement": "inhibition", "setting": "D(2) dopamine receptor [42]", "value": -2.98, "unit": "%"}, {"measurement": "inhibition", "setting": "[43]", "value": -2.78, "unit": "%"}]}
